Test results: patent US8883799B2, “Tricyclic PI3K inhibitor compounds and methods of use” (Genentech, Inc., priority 2010, dated 2014)
pEC50, pIC50: −log10 of the molar value.

Legend:
[1] = system: MDA-MB-361.1; test: In vitro cell proliferation assay (CellTiter-Glo), MDA-MB-361.1; format: cell-based; settings: Cell line: MDA-MB-361.1; Tissue type: breast; Mutation Status: PI3K; read-out: EC50 (μmole)
Protocol: (§1) Efficacy of Formula I compounds was measured by a cell proliferation assay employing the following protocol (Promega Corp. Technical Bulletin TB288; Mendoza et al (2002) Cancer Res. 62:5485-5488):
(§2) 1. An aliquot of 100 μl of cell culture containing about 10^4 cells (PC3, Detroit562, or MDAMB361.1) in medium was deposited in each well of a 384-well, opaque-walled plate.
(§3) 2. Control wells were prepared containing medium and without cells.
(§4) 3. The compound was added to the experimental wells and incubated for 3-5 days.
(§5) 4. The plates were equilibrated to room temperature for approximately 30 minutes.
(§6) 5. A volume of CellTiter-Glo® Reagent equal to the volume of cell culture medium present in each well was added.
(§7) 6. The contents were mixed for 2 minutes on an orbital shaker to induce cell lysis.
(§8) 7. The plate was incubated at room temperature for 10 minutes to stabilize the luminescence signal.
(§9) 8. Luminescence was recorded and reported in graphs as RLU=relative luminescence units.
(§10) Alternatively, cells were seeded at optimal density in a 96 well plate and incubated for 4 days in the presence of test compound. Alamar Blue™ was subsequently added to the assay medium, and cells were incubated for 6 hr before reading at 544 nm excitation, 590 nm emission. EC50 values were calculated using a sigmoidal dose response curve fit. The term EC50 refers to the half maximal effective concentration and is the concentration at which a drug induces a response halfway between the baseline and maximum after some specified exposure time. It is commonly used as a measure of drug potency.
(§11) The anti-proliferative effects of Formula I exemplary compounds were measured by the CellTiter-Glo® Assay against various tumor cell lines, including the following: […]

[2] = system: PC3; test: In vitro cell proliferation assay (CellTiter-Glo), PC3; format: cell-based; settings: Homo sapiens, PC-3; Cell line: PC3; Tissue type: prostate; Mutation Status: PTEN; read-out: EC50 (μmole)
Protocol: as §1, §2, §3, §4, §5, §6, §7, §8, §9, §10, §11

[3] = molecular target: T1, p110 alpha PI3K (Homo sapiens, UniProt P42336); test: p110α (alpha) PI3K binding assay (fluorescence polarization; alternatively radiometric); settings: read-out: IC50, Ki (μmole) PI3K, p110 alpha binding assay
T1 construct: purchased Upstate Cell Signaling Solutions, Charlottesville, Va
Protocol: Binding Assays: Initial polarization experiments were performed on an Analyst HT® 96-384 (Molecular Devices Corp, Sunnyvale, Calif.). […] After an incubation time of 30 minutes at room temperature, the reactions were stopped by the addition of GRP-1 and PIP3-TAMRA probe (Echelon-Inc., Salt Lake City, Utah) 100 nM and 5 nM final concentrations respectively. Read with standard cut-off filters for the rhodamine fluorophore (λex=530 nm; λem=590 nm) in 384-well black low volume Proxiplates® (PerkinElmer, Wellesley, Mass.) Fluorescence polarization values were plotted as a function of the protein concentration, and the EC50 values were obtained by fitting the data to a 4-parameter equation using KaleidaGraph® software (Synergy software, Reading, Pa.). This experiment also establishes the appropriate protein concentration to use in subsequent competition experiments with inhibitors.
After an incubation time of 30 minutes at room temperature, the reactions were stopped by the addition of GRP-1 and PIP3-TAMRA probe (Echelon-Inc., Salt Lake City, Utah) 100 nM and 5 nM final concentrations respectively. Read with standard cut-off filters for the rhodamine fluorophore (λex=530 nm; λem=590 nm) in 384-well black low volume PROXIPLATES® (PerkinElmer, Wellesley, Mass.) Fluorescence polarization values were plotted as a function of the antagonist concentration, and the IC50 values were obtained by fitting the data to a 4-parameter equation in Assay Explorer® software (MDL, San Ramon, Calif.).
The Formula I compound was serially diluted in 100% DMSO. The kinase reaction was incubated for 1 hr at room temperature, and the reaction was terminated by the addition of PBS. IC50 values were subsequently determined using sigmoidal dose-response curve fit (variable slope).

T1 sequence (P42336 whole entry): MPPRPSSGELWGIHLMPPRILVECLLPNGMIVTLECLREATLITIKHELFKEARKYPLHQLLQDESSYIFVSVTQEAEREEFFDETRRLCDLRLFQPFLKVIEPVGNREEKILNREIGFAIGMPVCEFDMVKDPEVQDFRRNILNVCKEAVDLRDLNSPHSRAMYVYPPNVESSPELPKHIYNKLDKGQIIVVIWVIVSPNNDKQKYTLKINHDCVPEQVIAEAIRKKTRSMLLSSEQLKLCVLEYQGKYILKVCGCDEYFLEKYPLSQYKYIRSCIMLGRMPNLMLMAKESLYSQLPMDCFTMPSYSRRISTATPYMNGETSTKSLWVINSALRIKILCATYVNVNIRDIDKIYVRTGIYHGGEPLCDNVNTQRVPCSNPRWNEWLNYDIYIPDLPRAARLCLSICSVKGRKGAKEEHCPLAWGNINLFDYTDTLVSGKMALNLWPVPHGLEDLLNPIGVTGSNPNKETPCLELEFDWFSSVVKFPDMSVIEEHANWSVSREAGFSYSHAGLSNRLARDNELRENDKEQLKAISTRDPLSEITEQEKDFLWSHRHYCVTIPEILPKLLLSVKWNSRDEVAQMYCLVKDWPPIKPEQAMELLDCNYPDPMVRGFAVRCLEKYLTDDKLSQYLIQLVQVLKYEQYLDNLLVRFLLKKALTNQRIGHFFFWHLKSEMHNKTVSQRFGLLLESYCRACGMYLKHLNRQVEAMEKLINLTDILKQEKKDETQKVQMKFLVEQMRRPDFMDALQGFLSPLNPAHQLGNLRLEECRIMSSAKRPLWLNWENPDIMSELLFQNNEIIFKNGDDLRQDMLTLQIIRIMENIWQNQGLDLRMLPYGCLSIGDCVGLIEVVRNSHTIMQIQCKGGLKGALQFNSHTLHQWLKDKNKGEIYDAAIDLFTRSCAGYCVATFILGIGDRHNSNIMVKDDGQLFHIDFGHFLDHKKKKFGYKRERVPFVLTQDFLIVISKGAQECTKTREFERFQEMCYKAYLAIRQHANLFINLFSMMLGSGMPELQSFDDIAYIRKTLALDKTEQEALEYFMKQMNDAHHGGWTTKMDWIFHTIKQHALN
T1 sequence (P27986 whole entry partner): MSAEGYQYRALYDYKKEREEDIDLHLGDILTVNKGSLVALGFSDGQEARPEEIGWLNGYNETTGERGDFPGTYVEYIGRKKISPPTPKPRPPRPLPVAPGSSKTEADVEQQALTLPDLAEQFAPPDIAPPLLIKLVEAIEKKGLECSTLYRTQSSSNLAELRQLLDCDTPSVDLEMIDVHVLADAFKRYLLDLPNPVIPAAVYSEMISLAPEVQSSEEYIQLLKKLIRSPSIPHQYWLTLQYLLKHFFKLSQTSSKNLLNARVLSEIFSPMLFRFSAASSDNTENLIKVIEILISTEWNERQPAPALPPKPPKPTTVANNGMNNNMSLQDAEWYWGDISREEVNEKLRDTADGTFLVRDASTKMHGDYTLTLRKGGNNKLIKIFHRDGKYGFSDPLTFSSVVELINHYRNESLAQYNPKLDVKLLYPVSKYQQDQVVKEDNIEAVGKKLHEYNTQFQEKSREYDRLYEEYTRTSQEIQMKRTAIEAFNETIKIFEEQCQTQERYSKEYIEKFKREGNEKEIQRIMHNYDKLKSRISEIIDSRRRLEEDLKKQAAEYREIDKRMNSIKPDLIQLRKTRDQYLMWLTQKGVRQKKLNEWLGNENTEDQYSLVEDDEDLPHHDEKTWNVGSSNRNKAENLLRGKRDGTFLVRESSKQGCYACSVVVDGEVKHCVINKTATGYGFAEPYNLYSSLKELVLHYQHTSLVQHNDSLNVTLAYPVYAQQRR

Nc1ncc(-c2nc(N3CCOCC3)c3c(n2)N2CCC[C@H]2CO3)cn1 [Compound 122, 5-((S)-6-Morpholin-4-yl-2,3,3a,4-tetrahydro-1H-5-oxa-7,9,9b-triaza-cyclopenta[a]naphthalen-8-yl)-pyrimidin-2-ylamine]
pEC50 [1]: 5.49 | pEC50 [2]: 5.70

CC1c2nc3c(N4CCOCC4)nc(-c4cnc(N)nc4)nc3n2CCN1C (centres unmarked) [Compound 176, 5-(6,7-dimethyl-4-morpholino-6,7,8,9-tetrahydropyrazino[2,1-e]purin-2-yl)pyrimidin-2-amine]
pEC50 [1]: 6.05 | pEC50 [2]: 5.72

C[C@@H]1CN(c2nc(-c3cnc(N)nc3)nc3c2nc2n3CCOC2(C)C)C[C@H](C)O1 [Compound 171, 5-(4-((2S,6R)-2,6-dimethylmorpholino)-6,6-dimethyl-8,9-dihydro-6H-[1,4]oxazino[3,4-e]purin-2-yl)pyrimidin-2-amine]
pEC50 [1]: 5.51 | pEC50 [2]: 5.42

CN(C)c1cnc(-c2nc(N3CCOCC3)c3nc4n(c3n2)CCOC4(C)C)cn1 [Compound 163, 5-(6,6-dimethyl-4-morpholino-8,9-dihydro-6H-[1,4]oxazino[3,4-e]purin-2-yl)-N,N-dimethylpyrazin-2-amine]
pIC50 [3]: < 6.16 | pEC50 [1]: < 5.00 | pEC50 [2]: < 5.00

CC1(C)CN(c2nc(-c3cnc(N)nc3)nc3c2nc2n3CCOC2(C)C)CCO1 [Compound 172, 5-(4-(2,2-dimethylmorpholino)-6,6-dimethyl-8,9-dihydro-6H-[1,4]oxazino[3,4-e]purin-2-yl)pyrimidin-2-amine]
pEC50 [1]: 5.82 | pEC50 [2]: 5.85

CC1(C)OCCn2c1nc1c(N3C[C@@H]4C[C@H]3CO4)nc(-c3cnc(N)nc3)nc12 [Compound 174, 5-(4-((1S,4S)-2-oxa-5-azabicyclo[2.2.1]heptan-5-yl)-6,6-dimethyl-8,9-dihydro-6H-[1,4]oxazino[3,4-e]purin-2-yl)pyrimidin-2-amine]
pEC50 [1]: 5.47 | pEC50 [2]: 5.44

Cc1nc(N)ncc1-c1nc(N2CCOCC2)c2nc3n(c2n1)CCOC3(C)C [Compound 102, 5-(6,6-dimethyl-4-morpholino-8,9-dihydro-6h-[1,4]oxazino[3,4-e]purin-2-yl)-4-methylpyrimidin-2-amine]
pEC50 [1]: 7.09 | pEC50 [2]: 5.70

Oc1cccc(-c2nc(N3CCOCC3)c3nc4n(c3n2)CCOC4C(F)(F)F)c1 (centres unmarked) [Compound 170, 3-(4-morpholino-6-(trifluoromethyl)-8,9-dihydro-6H-[1,4]oxazino[3,4-e]purin-2-yl)phenol]
pEC50 [1]: 6.04 | pEC50 [2]: 5.96

CC1(C)OCCn2c1cc1c(N3CCOCC3)nc(-c3cnc(N)nc3)nc12 [Compound 177, 5-(8,8-Dimethyl-1-morpholin-4-yl-5,6-dihydro-8H-7-oxa-2,4,4b-triaza-fluoren-3-yl)-pyrimidin-2-ylamine]
pEC50 [1]: 7.03 | pEC50 [2]: 6.73

CC(C)NC(=O)Nc1ccc(-c2nc(N3CCOCC3)c3nc4n(c3n2)CCOC4(C)C)cc1 [Compound 165, 1-(4-(6,6-dimethyl-4-morpholino-8,9-dihydro-6H-[1,4]oxazino[3,4-e]purin-2-yl)phenyl)-3-isopropylurea]
pEC50 [1]: 5.92 | pEC50 [2]: 5.89

FC(F)(F)C1OCCn2c1nc1c(N3CCOCC3)nc(-c3cccc4[nH]ncc34)nc12 (centres unmarked) [Compound 169, 2-(1H-indazol-4-yl)-4-morpholino-6-(trifluoromethyl)-8,9-dihydro-6H-[1,4]oxazino[3,4-e]purine]
pEC50 [1]: 5.36 | pEC50 [2]: 5.16

CC1(C)OCCn2c1nc1c(N3CCOCC3)nc(-c3ccc(C#N)cc3)nc12 [Compound 151, 4-(6,6-dimethyl-4-morpholino-8,9-dihydro-6H-[1,4]oxazino[3,4-e]purin-2-yl)benzonitrile]
pIC50 [3]: < 6.16

CC(=O)Nc1ccccc1-c1nc(N2CCOCC2)c2nc3n(c2n1)CCOC3(C)C [Compound 135, N-(2-(6,6-dimethyl-4-morpholino-8,9-dihydro-6H-[1,4]oxazino[3,4-e]purin-2-yl)phenyl)acetamide]
pIC50 [3]: < 6.16

CC1(C)OCCn2c1nc1c(N3CCOCC3)nc(-c3ccc(N4CCOCC4)nc3)nc12 [Compound 132, 6,6-dimethyl-4-morpholino-2-(6-morpholinopyridin-3-yl)-8,9-dihydro-6H-[1,4]oxazino[3,4-e]purine]
pIC50 [3]: < 6.16

Nc1ncc(-c2nc(N3CCOCC3)c3nc4n(c3n2)CCO[C@H]4C(F)(F)F)cn1 [Compound 139, (R)-5-(4-morpholino-6-(trifluoromethyl)-8,9-dihydro-6H-[1,4]oxazino[3,4-e]purin-2-yl)pyrimidin-2-amine]
pEC50 [1]: 6.37 | pEC50 [2]: 6.16

CC1(C)OCCn2c1nc1c(N3CCOCC3)nc(-c3cccc(CC#N)c3)nc12 [Compound 144, 2-(3-(6,6-dimethyl-4-morpholino-8,9-dihydro-6H-[1,4]oxazino[3,4-e]purin-2-yl)phenyl)acetonitrile]
pIC50 [3]: < 6.16

CC1(C)CCn2c(nc3c(N4CCOCC4)nc(-c4cnc(N)nc4)nc32)O1 [Compound 115, 5-(7,7-dimethyl-4-morpholino-8,9-dihydro-7h-[1,3]oxazino[2,3-e]purin-2-yl)pyrimidin-2-amine]
pEC50 [1]: 6.02 | pEC50 [2]: 5.74

CC1(C)OCCn2c1nc1c(N3CCOCC3)nc(-c3ccc(N4CCCCC4)cc3)nc12 [Compound 157, 6,6-dimethyl-4-morpholino-2-(4-(piperidin-1-yl)phenyl)-8,9-dihydro-6H-[1,4]oxazino[3,4-e]purine]
pIC50 [3]: < 6.16

CC1(C)OCCn2c1nc1c(N3CCOCC3)nc(-c3ccc(OCc4ccccc4)cc3)nc12 [Compound 154, 2-(4-(benzyloxy)phenyl)-6,6-dimethyl-4-morpholino-8,9-dihydro-6H-[1,4]oxazino[3,4-e]purine]
pIC50 [3]: < 6.16

CN1CCN(c2ccc(-c3nc(N4CCOCC4)c4nc5n(c4n3)CCOC5(C)C)cn2)CC1 [Compound 149, 6,6-dimethyl-2-(6-(4-methylpiperazin-1-yl)yridine-3-yl)-4-morpholino-8,9-dihydro-6H-[1,4]oxazino[3,4-e]purine]
pIC50 [3]: < 6.16

CN1CCN(c2cc(-c3nc(N4CCOCC4)c4nc5n(c4n3)CCOC5(C)C)ccn2)CC1 [Compound 130, 6,6-dimethyl-2-(2-(4-methylpiperazin-1-yl)yridine-4-yl)-4-morpholino-8,9-dihydro-6H-[1,4]oxazino[3,4-e]purine]
pIC50 [3]: < 6.16

CCNC(=O)Nc1ccc(-c2nc(N3CCOCC3)c3c(n2)C2(C)CCOC2N3C)cc1 (centres unmarked) [Compound 101, 1-[4-(3a,8-dimethyl-7-morpholin-4-yl-3,3a,8,8a-tetrahydro-2h-1-oxa-4,6,8-triaza-cyclopenta[a]inden-5-yl)-phenyl]-3-ethyl-urea]
pEC50 [1]: 6.50 | pEC50 [2]: 6.68

CC1(C)OCCc2c1sc1c(N3CCOCC3)nc(-c3cnc(N)nc3)nc21 [Compound 168, 5-(8,8-Dimethyl-1-morpholin-4-yl-5,8-dihydro-6H-7-oxa-9-thia-2,4-diaza-fluoren-3-yl)-pyrimidin-2-ylamine]
pEC50 [1]: 6.63 | pEC50 [2]: 6.67

CN(C(=O)OC(C)(C)C)c1ccc(-c2nc(N3CCOCC3)c3nc4n(c3n2)CCOC4(C)C)cc1 [Compound 143, tert-butyl 4-(6,6-dimethyl-4-morpholino-8,9-dihydro-6H-[1,4]oxazino[3,4-e]purin-2-yl)phenyl(methyl)carbamate]
pIC50 [3]: < 6.16

Cn1cc(-c2nc(N3CCOCC3)c3nc4n(c3n2)CCOC4(C)C)cn1 [Compound 127, 6,6-dimethyl-2-(1-methyl-1H-pyrazol-4-yl)-4-morpholino-8,9-dihydro-6H-[1,4]oxazino[3,4-e]purine]
pIC50 [3]: < 6.16
